Data: US12384800B2, “Antitumoral compounds” (priority 2017, dated 2025)

How the values were obtained:
Test in all cases: cells
[1] = test system: A549 cells (lung carcinoma, NSCLC); settings: A549, SRB; for GI50: 72 hours treatment; for TGI: total cell growth inhibition; for TGI / CC50: 72 hours; for CC50: read-out: LC50, 50% net cell killing
Text: (§1) The aim of this assay is to evaluate the in vitro cytostatic (ability to delay or arrest tumor cell growth) or cytotoxic (ability to kill tumor cells) activity of the samples being tested.
(§2) A colorimetric assay, using sulforhodamine B (SRB) reaction has been adapted to provide a quantitative measurement of cell growth and viability (following the technique described by Skehan et al. J. Natl. Cancer Inst. 1990, 82, 1107-1112). Another colorimetric assay based on 3-(4,5-Dimethylthiazol-2-yl)-2,5-diphenyltetrazolium bromide (MTT) reduction to a purple formazan has been also used to assess the antiproliferative activity (following the technique described by Mosmann et al. J. Immunol. Meth. 1983, 65, 55-63).
(§3) These forms of assays employ 96-well cell culture microplates following the standards of the American National Standards Institute and the Society for Laboratory Automation and Screening (ANSI SLAS 1-2004 (R2012) Oct. 12, 2011. All the cell lines used in this study were obtained from the American Type Culture Collection (ATCC) and derive from different types of human cancer.
(§4) A549, HT29, MDA-MB-231 and PSN1 cells were maintained in Dulbecco's Modified Eagle Medium (DMEM) while PC-3 and 22Rv1 cells were maintained in Roswell Park Memorial Institute Medium (RPMI). All cell lines were supplemented with 10% Fetal Bovine Serum (FBS), 2 mM L-glutamine, 100 U/mL penicillin, and 100 […] at 37° C., 5% CO2 and 98% humidity. For the experiments, cells were harvested from subconfluent cultures using trypsinization and resuspended in fresh medium before counting and plating.
(§5) A549, HT29, MDA-MB-231 and PSN1 cells were seeded in 96 well microtiter plates, at 5000 cells per well in aliquots of 150 μL, and allowed to attach to the plate surface for 18 hours (overnight) in drug free medium. After that, one control (untreated) plate of each cell line was fixed (as described below) and used for time zero reference value. Culture plates were then treated with test compounds (50 μL aliquots of 4× stock solutions in complete culture medium plus 4% DMSO) using ten ⅖ serial dilutions (concentrations ranging from 10 to 0.003 μg/mL) and triplicate cultures (1% final concentration in DMSO). After 72 hours treatment, the antitumor effect was measured by using the SRB methodology: Briefly, cells were washed twice with PBS, fixed for 15 min in 1% glutaraldehyde solution at room temperature, rinsed twice in PBS, and stained in 0.4% SRB solution for 30 min at room temperature. Cells were then rinsed several times with 1% acetic acid solution and air-dried at room temperature.
(§6) Effects on cell growth and survival were estimated by applying the NCI algorithm (Boyd M R and Paull K D. Drug Dev. Res. 1995, 34, 91-104). The values obtained in triplicate cultures were fitted by nonlinear regression to a four-parameters logistic curve by nonlinear regression analysis.

[2] = test system: MDA-MB-231 cells (breast adenocarcinoma); settings: for TGI: total cell growth inhibition; for TGI / CC50: 72 hours; for CC50: read-out: LC50, 50% net cell killing
Text: as §1, §2, §3, §4, §5, §6

[3] = test system: PSN1 cells (pancreas adenocarcinoma); settings: PSN1, SRB; for GI50: 72 hours treatment; for TGI: total cell growth inhibition; for TGI / CC50: 72 hours; for CC50: read-out: LC50, 50% net cell killing
Text: as §1, §2, §3, §4, §5, §6

[4] = test system: HT29 cells (colorectal adenocarcinoma); settings: HT29, SRB; for TGI: total cell growth inhibition; for TGI / CC50: 72 hours; for CC50: read-out: LC50, 50% net cell killing; for GI50: 72 hours treatment
Text: as §1, §2, §3, §4, §5, §6

[5] = MDA-MB-231, 72 hours treatment, SRB

| Compound | GI50 [1] | TGI [1] | CC50 [1] | GI50 [2, 5] | TGI ([2]; MDA-MB-231, SRB) | CC50 ([2]; MDA-MB-231, SRB) | GI50 [3] | TGI [3] | CC50 [3] | TGI [4] | CC50 [4] | GI50 [4] | GI50 ([2]; Homo sapiens, MDA-MB-231, 72 h) |
| --- | --- | --- | --- | --- | --- | --- | --- | --- | --- | --- | --- | --- | --- |
| COc1c(C)cc2c(c1O)[C@@H]1[C@@H]3[C@@H]4SC[C@]5(N[C@H](C)Cc6c5[nH]c5ccccc65)C(=O)OC[C@@H](c5c6c(c(C)c(OC(C)=O)c54)OCO6)N3[C@@H](C#N)[C@H](C2)N1C [A, reference compound] | 8.36 nM | 8.87E−09 Molar | > 129 nM | 7.07 nM | 9.38E−09 Molar | 14.1 nM | 12.9 nM | 1.54E−08 Molar | 19.3 nM | 8.36E−09 Molar | > 129 nM | – | – |
| COc1c(C)cc2c(c1O)[C@@H]1[C@@H]3[C@@H]4SC[C@]5(N[C@@H](C)Cc6c5[nH]c5ccccc65)C(=O)OC[C@@H](c5c6c(c(C)c(OC(C)=O)c54)OCO6)N3[C@@H](C#N)[C@H](C2)N1C [B, reference compound] | 20.6 nM | 2.19E−08 Molar | > 129 nM | 9 nM | 1.67E−08 Molar | 34.7 nM | 19.3 nM | 2.06E−08 Molar | 23.1 nM | 9.13E−09 Molar | > 129 nM | 8.48 nM | – |
| COc1c(C)cc2c(c1O)[C@@H]1[C@@H]3[C@@H]4SC[C@]5(N[C@@H](CO)Cc6c5[nH]c5ccccc65)C(=O)OC[C@@H](c5c6c(c(C)c(OC(C)=O)c54)OCO6)N3[C@@H](C#N)[C@H](C2)N1C [Compound 3-R] | 403 nM | 5.79E−10 Molar | > 126 nM | – | 5.04E−10 Molar | 1.25 nM | 0.39 nM | 6.05E−10 Molar | > 126 nM | >1.26E−07 Molar | > 126 nM | – | – |
| COc1c(C)cc2c(c1O)[C@@H]1[C@@H]3[C@@H]4SC[C@]5(N[C@H](COC(C)=O)Cc6c5[nH]c5ccccc65)C(=O)OC[C@@H](c5c6c(c(C)c(OC(C)=O)c54)OCO6)N3[C@@H](C#N)[C@H](C2)N1C [Compound 3a-S] | 3.11 nM | 3.23E−09 Molar | > 120 nM | 2.87 nM | 3.59E−09 Molar | 4.9 nM | 2.15 nM | 3.59E−09 Molar | 12 nM | 3.23E−09 Molar | > 120 nM | 2.99 nM | – |
| C=CCOC(=O)NC[C@H]1Cc2c([nH]c3ccccc23)[C@@]2(CS[C@@H]3c4c(OC(C)=O)c(C)c5c(c4[C@H](COC2=O)N2[C@@H]3[C@H]3c4c(cc(C)c(OC)c4O)C[C@@H]([C@@H]2C#N)N3C)OCO5)N1 [Compound 10-R] | – | – | – | – | – | – | – | – | – | >1.14E−07 Molar | > 114 nM | – | – |
| COc1c(C)cc2c(c1O)[C@@H]1[C@@H]3[C@@H]4SC[C@]5(N[C@@H](CN)Cc6c5[nH]c5ccccc65)C(=O)OC[C@@H](c5c6c(c(C)c(OC(C)=O)c54)OCO6)N3[C@@H](C#N)[C@H](C2)N1C [Compound 11-R] | 1.77 nM | 4.54E−09 Molar | > 126 nM | – | – | – | 1.39 nM | 1.89E−09 Molar | > 126 nM | >1.26E−07 Molar | > 126 nM | 1.39 nM | – |
| COc1c(C)cc2c(c1O)[C@@H]1[C@@H]3[C@@H]4SC[C@]5(N[C@H](CN)Cc6c5[nH]c5ccccc65)C(=O)OC[C@@H](c5c6c(c(C)c(OC(C)=O)c54)OCO6)N3[C@@H](C#N)[C@H](C2)N1C [Compound 11-S] | – | – | > 126 nM | – | – | – | – | – | – | >1.26E−07 Molar | > 126 nM | – | – |
| COc1c(C)cc2c(c1O)[C@@H]1[C@@H]3[C@@H]4SC[C@]5(N[C@H](C(=O)O)Cc6c5[nH]c5ccccc65)C(=O)OC[C@@H](c5c6c(c(C)c(OC(C)=O)c54)OCO6)N3[C@@H](C#N)[C@H](C2)N1C [Compound 14-S, reference compound] | > 124 nM | >1.24E−07 Molar | > 124 nM | 54.5 nM | 1.13E−07 Molar | > 124 nM | > 124 nM | >1.24E−07 Molar | > 124 nM | >1.24E−07 Molar | > 124 nM | 121 nM | – |
| COc1ccc2[nH]c3c(c2c1)C[C@H](CO)N[C@]31CS[C@@H]2c3c(OC(C)=O)c(C)c4c(c3[C@H](COC1=O)N1[C@@H]2[C@H]2c3c(cc(C)c(OC)c3O)C[C@@H]([C@@H]1C#N)N2C)OCO4 [Compound 18-R] | – | 1.34E−09 Molar | – | – | 1.34E−09 Molar | 1.46 nM | 0.57 nM | 1.06E−09 Molar | – | 1.34E−09 Molar | – | – | – |
| COc1ccc2[nH]c3c(c2c1)C[C@@H](CO)N[C@]31CS[C@@H]2c3c(OC(C)=O)c(C)c4c(c3[C@H](COC1=O)N1[C@@H]2[C@H]2c3c(cc(C)c(OC)c3O)C[C@@H]([C@@H]1C#N)N2C)OCO4 [Compound 18-S] | 1.7 nM | 3.03E−09 Molar | – | – | 1.34E−09 Molar | 1.58 nM | 0.959 nM | 1.34E−09 Molar | – | 1.34E−09 Molar | – | – | – |
| C=CCOC(=O)NC[C@H]1Cc2c([nH]c3ccc(OC)cc23)[C@@]2(CS[C@@H]3c4c(OC(C)=O)c(C)c5c(c4[C@H](COC2=O)N2[C@@H]3[C@H]3c4c(cc(C)c(OC)c4O)C[C@@H]([C@@H]2C#N)N3C)OCO5)N1 [Compound 25-R] | 1.32 nM | 2.43E−09 Molar | 9.92 nM | – | 2.54E−09 Molar | 8.38 nM | – | 2.32E−09 Molar | 6.73 nM | 2.76E−09 Molar | > 110 nM | 1.54 nM | – |
| C=CCOC(=O)NC[C@@H]1Cc2c([nH]c3ccc(OC)cc23)[C@@]2(CS[C@@H]3c4c(OC(C)=O)c(C)c5c(c4[C@H](COC2=O)N2[C@@H]3[C@H]3c4c(cc(C)c(OC)c4O)C[C@@H]([C@@H]2C#N)N3C)OCO5)N1 [Compound 25-S] | 7.17 nM | 7.61E−09 Molar | > 110 nM | 5.84 nM | 9.04E−09 Molar | 15.4 nM | 6.84 nM | 9.26E−09 Molar | 14.3 nM | 7.72E−09 Molar | > 110 nM | 7.17 nM | – |
| COc1ccc2[nH]c3c(c2c1)C[C@H](CN)N[C@]31CS[C@@H]2c3c(OC(C)=O)c(C)c4c(c3[C@H](COC1=O)N1[C@@H]2[C@H]2c3c(cc(C)c(OC)c3O)C[C@@H]([C@@H]1C#N)N2C)OCO4 [Compound 26-R] | 1.94 nM | 3.40E−09 Molar | > 122 nM | 1.17 nM | 1.22E−09 Molar | 1.46 nM | 0.972 nM | 1.70E−09 Molar | 3.52 nM | 1.58E−09 Molar | > 122 nM | 0.729 nM | – |
| COc1ccc2[nH]c3c(c2c1)C[C@@H](CN)N[C@]31CS[C@@H]2c3c(OC(C)=O)c(C)c4c(c3[C@H](COC1=O)N1[C@@H]2[C@H]2c3c(cc(C)c(OC)c3O)C[C@@H]([C@@H]1C#N)N2C)OCO4 [Compound 26-S] | 11.2 nM | 2.19E−08 Molar | > 122 nM | 1.34 nM | 1.94E−09 Molar | 3.89 nM | 3.04 nM | 3.28E−09 Molar | 3.52 nM | 3.16E−09 Molar | > 122 nM | 2.79 nM | – |
| C=CCOC(=O)NC[C@@H]1Cc2c(oc3ccccc23)[C@@]2(CS[C@@H]3c4c(OC(C)=O)c(C)c5c(c4[C@H](COC2=O)N2[C@@H]3[C@H]3c4c(cc(C)c(OC)c4O)C[C@@H]([C@@H]2C#N)N3C)OCO5)N1 [Compound 45-S] | – | – | – | – | – | – | – | – | – | – | – | – | 11.7 nM |
